Data published in PubChem BioAssay (NCI).
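96-well plates; 48 h exposure; 5 concentrations. Endpoints by linear interpolation between flanking doses. Not reached: highest tested concentration assigned. At the GI50, growth is halved. TGI marks complete inhibition of growth.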

Legend:
Assay in all cases: growth of human tumour cells (NCI), 48 h
HOP-92 NSCLC = tested on: HOP-92 NSCLC
U251 CNS = tested on: U251 CNS
SK-MEL-2 melanoma = tested on: SK-MEL-2 melanoma
SNB-19 CNS = tested on: SNB-19 CNS
SW-620 colon = tested on: SW-620 colon
MDA-MB-435 = tested on: MDA-MB-435
NCI-H460 lung = tested on: NCI-H460 lung
NCI-H226 lung = tested on: NCI-H226 lung
NCI/ADR-RES ovarian = tested on: NCI/ADR-RES ovarian
UACC-257 melanoma = tested on: UACC-257 melanoma

SMILES	GI50 (HOP-92 NSCLC)	TGI (HOP-92 NSCLC)	GI50 (U251 CNS)	TGI (U251 CNS)	TGI (SK-MEL-2 melanoma)	GI50 (SNB-19 CNS)	TGI (SNB-19 CNS)	GI50 (SW-620 colon)	TGI (SW-620 colon)	TGI (MDA-MB-435)	TGI (NCI-H460 lung)	GI50 (NCI-H226 lung)	TGI (NCI-H226 lung)	TGI (NCI/ADR-RES ovarian)	GI50 (UACC-257 melanoma)	TGI (UACC-257 melanoma)	GI50 (SK-MEL-2 melanoma)	GI50 (MDA-MB-435)	GI50 (NCI-H460 lung)	GI50 (NCI/ADR-RES ovarian)
NC(=O)c1cc(N2CC2)c([N+](=O)[O-])cc1[N+](=O)[O-]	> 200 µM	> 200 µM	> 200 µM	> 200 µM	> 20 µM	> 200 µM	> 200 µM	> 200 µM	> 200 µM	> 200 µM	> 77 µM	> 200 µM	> 200 µM	> 200 µM	> 200 µM	> 200 µM				
O=C(c1c(F)c(F)c(F)c(F)c1F)c1c(F)c(F)c(F)c(F)c1F		3.43 µM		2.41 µM	7.02 µM		16.3 µM		60.6 µM	3.21 µM	5.24 µM		8.96 µM	14.5 µM		4.65 µM				
O=C1Nc2c(Cl)cc(Cl)cc2/C1=N/N=C/c1ccco1		> 100 µM		> 100 µM	57.1 µM		> 100 µM		> 100 µM	> 100 µM	> 100 µM		59.2 µM	82.1 µM		> 100 µM				
COc1cnc2c(c1)C(=O)c1c-2n(CCCN2CCCC2)c(=O)c2cc([N+](=O)[O-])ccc12	0.554 µM	15.6 µM	0.0113 µM	1.03 µM	15.9 µM	0.0355 µM	4.3 µM	< 0.01 µM	1.34 µM	1.13 µM	0.116 µM	0.104 µM	0.715 µM	1.31 µM	0.176 µM	11 µM	1.01 µM	0.0647 µM	< 0.01 µM	0.026 µM
CCN1CCN(CCNc2nccc(-c3c(-c4ccc(F)c(O)c4)nc4occn34)n2)S1(=O)=O	52.1 µM	> 100 µM	13.3 µM	> 100 µM	> 100 µM	> 100 µM	> 100 µM	8.42 µM	> 100 µM	> 100 µM	> 100 µM	3.8 µM	> 100 µM	> 100 µM	5.15 µM	> 100 µM	3.98 µM	3.03 µM	4.92 µM	3.01 µM
COc1cc(-n2ccnc2-c2ccc3ccccc3c2)cc(OC)c1OC	3.72 µM	28.9 µM	0.0907 µM	21.5 µM	26.9 µM	0.131 µM	> 36.7 µM	0.0443 µM	> 63 µM	0.124 µM	14.7 µM	5.7 µM	> 53.7 µM	0.472 µM	20 µM	> 100 µM	0.19 µM		0.0373 µM	
C(=N\Nc1ncc(-c2cc3cc4c(cc3o2)OCO4)s1)/c1ccco1	1.94 µM	8.98 µM	2.9 µM	14.5 µM	11.3 µM	4.73 µM	23.1 µM	0.681 µM	2.48 µM	10.2 µM	10.3 µM	3.67 µM	18.9 µM	> 100 µM	3.83 µM	23.2 µM	3.11 µM	2.86 µM	2.59 µM	2.21 µM
COC[C@H](NC(=O)c1cnc(C)s1)C(=O)N[C@@H](COC)C(=O)N[C@@H](Cc1ccccc1)C(=O)[C@@]1(C)CO1	30.3 µM	> 82.4 µM	47.8 µM	> 100 µM	> 91.6 µM	> 65.3 µM	> 100 µM	21.2 µM	> 100 µM	40 µM	> 100 µM	17.4 µM	46.6 µM	> 100 µM	21.1 µM	> 70.8 µM	28.7 µM	12.9 µM	37.1 µM	> 100 µM
